Test results taken from patent US11214576B2, “2,3-dihydrofuro[2,3-b]pyridine compounds” (Eli Lilly and Company, priority 2018, dated 2022).

Molecular target: human O-GlcNAc-β-N-acetylglucosaminidase (OGA) (Homo sapiens (Human), UniProt O60502)
Experiment: In Vitro Human OGA Enzyme Assay
Type: biochemical
Conditions: full-length His-tagged human OGA; FD-GlcNAc substrate 6.7 μM; 30 min pre-incubation, 60 min reaction, pH 7
Method: The nucleotide sequence encoding full-length human O-GlcNAc-β-N-acetylglucosaminidase (NM_012215) is inserted into pFastBacl (Invitrogen) vector with an N-terminal poly-histidine (HIS) tag. Baculovirus generation is carried out according to the Bac-to-Bac Baculovirus Expression system (Invitrogen) protocol. Sf9 cells are infected at 1.5×10^6 cells/mL using 10 mL of P1 virus per Liter of culture and incubated at 28° C. for 48 hrs. Cells are spun down, rinsed with PBS and the pellets stored at −80° C. The above OGA protein (His-OGA) is purified as follows: 4 L of cells are lysed in 200 mL of buffer containing 50 mM Tris, pH 8.0, 300 mM NaCl, 10% glycerol, 10 mM imidazole, 1 mM dithiothreitol (DTT), 0.1% Triton™ X-100, 4 tablets of protease inhibitors (complete EDTA-Free, Roche) for 45 min at 4° C. This cell lysate is then spun for 40 min at 16500 rpm at 4° C., and supernatant incubated with 6 mL of Ni-NTA resin (nickel-nitrilotriacetic acid) for 2 hours at 4° C.
Resin is then packed onto column and washed with 50 mM Tris, pH 8.0, 300 mM NaCl, 10% glycerol, 10 mM imidazole, 0.1% Triton™ X-100, 1 mM DTT, followed by 50 mM Tris, pH 8.0, 150 mM NaCl, 10 mM imidazole, 10% glycerol, 1 mM DTT. The proteins are eluted with 50 mM Tris, pH 8.0, 150 mM NaCl, 300 mM imidazole, 10% glycerol, 1 mM DTT. Pooled His-OGA containing fractions are concentrated to 6 ml and loaded onto Superdex75 (16/60). The protein is eluted with 50 mM Tris, pH 8.0, 150 mM NaCl, 10% glycerol, 2 mM DTT. Fractions containing His-OGA are pooled and protein concentration measured with BCA ([…]).
The OGA enzyme catalyses the removal of O-GlcNAc from nucleocytoplasmic proteins. To measure this activity Fluorescein di-N-acetyl-β-N-acetyl-D-glucosaminide (FD-GlcNAc, Kim, Eun Ju; Kang, Dae Ook; Love, Dona C.; Hanover, John A. Carbohydrate Research (2006), 341(8), 971-982) is used as a substrate at a final concentration of 6.7 μM (in a 384 well assay format). This fluorogenic substrate becomes fluorescent upon cleavage by OGA, so that the enzyme activity can be measured by the increase in fluorescence detected at 535 nm (excitation at 485 nm).
The assay buffer is prepared to give a final concentration of 50 mM […], 0.01% bovine serum albumin and 0.01% Triton™ X-100 in water, at pH 7. Compounds to be tested are diluted in pure dimethyl sulfoxide (DMSO) using ten point concentration response curves. Maximal compound concentration in the reaction mixture is 30 or 1 μM. […] Then, without stopping the reaction, fluorescence is read. IC50 values are calculated by plotting the normalized data vs. log of the compound and fitting the data using a four parameter logistic equation.

Sequence of human O-GlcNAc-β-N-acetylglucosaminidase (OGA) (O60502 whole entry): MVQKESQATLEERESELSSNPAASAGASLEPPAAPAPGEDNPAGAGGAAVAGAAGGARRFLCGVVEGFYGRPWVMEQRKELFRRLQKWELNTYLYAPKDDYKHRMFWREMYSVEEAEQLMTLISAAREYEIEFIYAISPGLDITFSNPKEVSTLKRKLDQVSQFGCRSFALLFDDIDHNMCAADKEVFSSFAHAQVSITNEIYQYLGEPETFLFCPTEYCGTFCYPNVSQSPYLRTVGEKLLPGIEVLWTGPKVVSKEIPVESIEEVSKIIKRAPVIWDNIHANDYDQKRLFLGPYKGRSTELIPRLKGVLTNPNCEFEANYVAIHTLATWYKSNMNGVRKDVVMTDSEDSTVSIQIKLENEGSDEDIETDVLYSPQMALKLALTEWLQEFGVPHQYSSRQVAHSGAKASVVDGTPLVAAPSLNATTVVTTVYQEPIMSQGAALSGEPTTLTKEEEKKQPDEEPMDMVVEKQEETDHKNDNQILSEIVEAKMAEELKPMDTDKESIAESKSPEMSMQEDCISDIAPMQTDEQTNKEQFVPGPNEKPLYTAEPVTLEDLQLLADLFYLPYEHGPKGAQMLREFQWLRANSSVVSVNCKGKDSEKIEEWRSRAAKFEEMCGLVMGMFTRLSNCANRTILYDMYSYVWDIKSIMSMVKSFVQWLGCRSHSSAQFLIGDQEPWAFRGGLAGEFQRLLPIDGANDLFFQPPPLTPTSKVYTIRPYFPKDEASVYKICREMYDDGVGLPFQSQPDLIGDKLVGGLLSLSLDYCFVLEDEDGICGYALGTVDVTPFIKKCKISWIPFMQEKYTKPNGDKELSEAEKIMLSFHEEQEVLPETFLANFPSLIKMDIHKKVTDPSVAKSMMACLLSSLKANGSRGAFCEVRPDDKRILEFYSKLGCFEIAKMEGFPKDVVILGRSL

| IC50 | SMILES |
| --- | --- |
| 611 nM | Cc1nnc(C2CCN(C(C)c3ccc4c(n3)OCC4)CC2)o1 (single isomer, unassigned; (+)) [Example 3] |
| 2660 ± 607 nM | Cc1nnc(C2CCN(C(C)c3nc4c(cc3F)CCO4)CC2)o1 (single isomer, unassigned; (+)) [Example 4, (+)-5-fluoro-6-[1-[4-(5-methyl-1,3,4-oxadiazol-2-yl)-1-piperidyl]ethyl]-2,3-dihydrofuro[2,3-b]pyridine] |
| 1.13 ± 1.02 nM | Cc1nnc(C2CCN(C(C)c3nc4c(cc3F)CCO4)CC2)o1 (single isomer, unassigned; (-)) [Example 2, (−)-5-fluoro-6-[1-[4-(5-methyl-1,3,4-oxadiazol-2-yl)-1-piperidyl]ethyl]-2,3-dihydrofuro[2,3-b]pyridine] |
| 1.24 ± 0.66 nM | Cc1nnc(C2CCN(C(C)c3ccc4c(n3)OCC4)CC2)o1 (single isomer, unassigned; (-)) [Example 1, (−)-6-[1-[4-(5-methyl-1,3,4-oxadiazol-2-yl)-1-piperidyl]ethyl]-2,3-dihydrofuro[2,3-b]pyridine] |
